# Legend:
# [1] = Cardiodynamic ECG assessment and concentration-QT effect model (SAD part); type: in vivo, human
# Protocol: ECG and pharmacokinetic data from the SAD part of the study were used to construct a concentration-QT effect model to assess potential QT effects. The primary cardiodynamic safety parameter was the corrected QT interval by Fredericia (QTcF). The potential impact of taniborbactam on other ECG intervals and T-wave morphology was also assessed. The ECG monitoring in the study was intensive, with continuous Holter 12-lead ECGs recorded on day 1. ECG data used in the modeling consisted of extracted replicates at time points that matched the pharmacokinetic data. The concentration-QT effect model included the entire single-dose range of between 62.5 mg and 1,500 mg taniborbactam.
# [2] = Single-ascending-dose (SAD) pharmacokinetics in plasma and urine, healthy adult volunteers; type: in vivo, human; conditions: for Tmax: median (range); for Fe: excreted unchanged in urine over 48 h; for Ae: urine over 48 h
# Protocol: Eligible subjects were randomized to receive either taniborbactam or placebo in a 3:1 ratio within dose cohorts in both the SAD and MAD parts of the study. Each dose cohort in the SAD part of the study enrolled 8 subjects, and each dose cohort in the MAD part of the study enrolled 12 subjects. In the SAD part, subjects received 62.5, 125, 250, 500, 1,000, or 1,500 mg taniborbactam as a 2-h intravenous (i.v.) infusion. In the MAD part, subjects received 2-h intravenous i.v. infusions of 250, 500, or 750 mg taniborbactam q8h over 10 days, ending after a final morning dose on day 10 (total of 28 doses).
# Blood samples for assay of taniborbactam in plasma were collected predose and at 1, 2, 2.25, 2.5, 2.75, 3, 4, 6, 8, 12, 26, and 50 h after the start of drug infusion in the SAD part. For the MAD part, blood samples to determine taniborbactam plasma concentrations were collected predose and at 1, 2, 2.25, 2.5, 2.75, 3, 4, 6, and 8 h following the first dose (day 1) and predose and at 1, 2, 2.25, 2.5, 2.75, 3, 4, 6, 10, 14, and 26 h following the last dose (day 10). Urine was collected predose and at intervals of 0 to 4, 4 to 8, 8 to 24, and 24 to 48 h after the start of the infusion in the SAD part for the higher-dose groups (500 to 1,500 mg taniborbactam). For the MAD part, urine was collected through the dosing interval following the last dose using collection intervals of 0 to 4 and 4 to 8 h after the start of the infusion. At the end of each urine collection interval, the volume of each urine collection was recorded and a sample was taken.
# Plasma and urine samples were assayed for taniborbactam and screened for possible metabolites. Human dipotassium ethylenediaminetetraacetic acid (K2EDTA) plasma samples were processed using protein precipitation and assayed using ultra-high-performance liquid chromatography with tandem mass spectrometric detection (LC-MS/MS). Both low- and high-range methods were developed and validated for plasma samples, with calibration ranges of 5 to 5,000 ng/ml and 100 to 100,000 ng/ml, respectively. Acidified urine samples were processed using solid-phase extraction and assayed using a validated LC-MS/MS method with a calibration range of 5.0 to 5,000 ng/ml. For both matrices, separation was accomplished using a Waters Acquity HSS T3 column (Milford, MA) at 50°C, and gradient elution using 10 mM ammonium formate with 1% formic acid as mobile phase A and 50:50:1 acetonitrile:methanol:formic acid (vol/vol/vol) as mobile phase B. A triple quadrupole mass spectrometer (API Triple Quad 5500; AB Sciex, Framingham, MA) equipped with a turbo-ion spray set was used for detection in positive ion mode, and quantification was based on multiple reaction monitoring. The internal standard used in the assays was D4-taniborbactam.
# Individual subject plasma and urine taniborbactam pharmacokinetic parameters were evaluated using noncompartmental analysis methods (Phoenix WinNonlin, Certara, Princeton, NJ). Single-dose pharmacokinetic parameters were determined in the SAD part, and both single-dose (day 1) and multiple-dose (day 10) pharmacokinetic parameters were determined in the MAD part. Estimated pharmacokinetic parameters included Cmax, time to Cmax (Tmax), AUCtau, AUC0–inf, t1/2, CL, VZ, Ae, Fe, and CLR. The actual sample times were used to calculate the pharmacokinetic parameters. Calculation of λZ was based on best fit of concentrations in the observed terminal elimination phase of a profile, and statistical inclusion of any parameter based on λZ required the goodness of fit statistic (R^2) to be greater than 0.8. Pharmacokinetic data were summarized using descriptive statistics by treatment. Dose proportionality based on Cmax and AUC was determined using linear regression to calculate the slope and 90% CI and observing whether a slope of 1 was included in the confidence interval. The dose proportionality analysis included subject body weight as a covariate in the analysis.
# [3] = single dose 62.5 mg, 2-h i.v. infusion, mean (%CV)
# [4] = single dose 125 mg, 2-h i.v. infusion, mean (%CV)
# [5] = single dose 250 mg, 2-h i.v. infusion, mean (%CV)
# [6] = single dose 500 mg, 2-h i.v. infusion, mean (%CV)
# [7] = single dose 1,000 mg, 2-h i.v. infusion, mean (%CV)
# [8] = single dose 1,000 mg, mean (%CV)
# [9] = single dose 1,500 mg, 2-h i.v. infusion, mean (%CV)
# [10] = single dose 1,500 mg, mean (%CV)
structure (smiles),measurement,setting,value
NCCN[C@H]1CC[C@H](CC(=O)N[C@H]2Cc3cccc(C(=O)O)c3OB2O)CC1 [Taniborbactam],QT effect (ΔΔQTcF) from exposure-response analysis,"[1]; plasma concentrations up to 80,000 ng/ml (Cmax of 1,500 mg dose)",≤ 10 ms
same,"effect on heart rate, T-wave morphology, PR and QRS interval","[1]; single doses 62.5 to 1,500 mg",did not have an effect
same,t1/2,"[2]; higher single-dose groups (500 to 1,500 mg)",~5.7 h
same,AUCinf,[2]; [3],"11,284 (13.3) h · ng/ml"
same,CL,[2]; [3],5.6 (14.1) liters/h
same,Cmax,[2]; [3],"3,398 (17.0) ng/ml"
same,Vz,[2]; [3],28.4 (18.7) liters
same,Tmax,"[2]; single dose 62.5 mg, 2-h i.v. infusion","2.0 (2.0, 2.0) h"
same,t1/2,"[2]; single dose 62.5 mg, 2-h i.v. infusion, terminal elimination, mean (%CV)",3.5 (9.3) h
same,AUCinf,[2]; [4],"20,326 (13.7) h · ng/ml"
same,CL,[2]; [4],6.2 (12.6) liters/h
same,Cmax,[2]; [4],"5,023 (13.8) ng/ml"
same,Vz,[2]; [4],30.2 (14.2) liters
same,Tmax,"[2]; single dose 125 mg, 2-h i.v. infusion","2.0 (2.0, 2.0) h"
same,t1/2,"[2]; single dose 125 mg, 2-h i.v. infusion, terminal elimination, mean (%CV)",3.4 (5.8) h
same,AUCinf,[2]; [5],"41,106 (19.0) h · ng/ml"
same,CL,[2]; [5],6.3 (17.5) liters/h
same,Cmax,[2]; [5],"11,533 (13.8) ng/ml"
same,Vz,[2]; [5],34.6 (17.1) liters
same,Tmax,"[2]; single dose 250 mg, 2-h i.v. infusion","2.0 (2.0, 2.0) h"
same,t1/2,"[2]; single dose 250 mg, 2-h i.v. infusion, terminal elimination, mean (%CV)",4.0 (31.1) h
same,AUCinf,[2]; [6],"82,499 (9.2) h · ng/ml"
same,CL,[2]; [6],6.1 (9.0) liters/h
same,Cmax,[2]; [6],"22,650 (11.4) ng/ml"
same,Vz,[2]; [6],50.2 (12.1) liters
same,Tmax,"[2]; single dose 500 mg, 2-h i.v. infusion","2.0 (2.0, 2.0) h"
same,t1/2,"[2]; single dose 500 mg, 2-h i.v. infusion, terminal elimination, mean (%CV)",5.7 (4.3) h
same,Fe,"[2]; single dose 500 mg, mean (%CV)",64.1 (9.6) %
same,Fe,"[2]; single dose 500 mg, mean (%CV), listed as taniborbactam",64.1%
same,CLR,"[2]; single dose 500 mg, mean (%CV)",3.9 (15.5) liters/h
same,Ae,"[2]; single dose 500 mg, mean (%CV)",320.6 (9.6) mg
same,AUCinf,[2]; [7],"156,542 (15.7) h · ng/ml"
same,CL,[2]; [7],6.5 (15.7) liters/h
same,Cmax,[2]; [7],"43,317 (14.8) ng/ml"
same,Vz,[2]; [7],54.0 (17.9) liters
same,Tmax,"[2]; single dose 1,000 mg, 2-h i.v. infusion","2.0 (2.0, 2.1) h"
same,t1/2,"[2]; single dose 1,000 mg, 2-h i.v. infusion, terminal elimination, mean (%CV)",5.7 (3.3) h
same,Fe,[2]; [8],76.7 (9.4) %
same,Fe,"[2]; single dose 1,000 mg, mean (%CV), listed as taniborbactam",76.7%
same,CLR,[2]; [8],5.0 (16.7) liters/h
same,Ae,[2]; [8],766.9 (9.4) mg
same,AUCinf,[2]; [9],"263,422 (17.8) h · ng/ml"
same,CL,[2]; [9],5.9 (19.2) liters/h
same,Cmax,[2]; [9],"71,817 (16.3) ng/ml"
same,Vz,[2]; [9],49.4 (21.6) liters
same,Tmax,"[2]; single dose 1,500 mg, 2-h i.v. infusion","2.0 (2.0, 2.0) h"
same,t1/2,"[2]; single dose 1,500 mg, 2-h i.v. infusion, terminal elimination, mean (%CV)",5.8 (6.2) h
same,Fe,[2]; [10],66.6 (12.9) %
same,Fe,"[2]; single dose 1,500 mg, mean (%CV), listed as taniborbactam",66.6%
same,CLR,[2]; [10],3.9 (16.8) liters/h
same,Ae,[2]; [10],998.7 (12.9) mg
same,half-life of the earlier phase that characterizes the majority of exposure,"[2]; single doses, also seen within dose intervals on multiple dosing",about 2 h
